Source: PubChem BioAssay (NCI)
Values joined by “and” are separate entries in the source; they are usually repeats but may differ in a detail not shown here. Equal values may be shown once.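 Interpolation was linear, between the two tested concentrations surrounding the appropriate level; five concentrations were tested over 48 hours in 96-well plates. GI50 marks 50% less growth. TGI: concentration producing complete growth inhibition.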

Experiments:
Assay in all cases: NCI tumour cell line growth inhibition, 48 h
[1] = test system: MCF7 breast
[2] = test system: DMS 273 small cell lung
[3] = test system: HOP-18 NSCLC
[4] = test system: KM20L2 colon
[5] = test system: LXFL 529 NSCLC
[6] = test system: M19-MEL melanoma
[7] = test system: RXF-631 renal
[8] = test system: XF 498 CNS
[9] = test system: MDA-N
[10] = test system: P388/ADR leukemia
[11] = test system: SN12K1 renal

Row | SMILES | GI50 [1] | TGI [1] | TGI [2] | TGI [4] | TGI [5] | TGI [6] | also measured
1 | COc1nc(N(C)O)nc(N(C)O)n1 | 2.07 µM | > 100 µM | – | – | – | – | –
2 | COc1cc(CCc2ccc(OCCN(C)C)cc2)cc(OC)c1OC | – | – | > 100 µM | > 100 µM | > 100 µM | > 100 µM | TGI [3]: > 100 µM; TGI [7]: > 100 µM; TGI [8]: 93.7 µM
3 | CCc1cccc(C(C)C)c1NC(=O)C(=O)C(Cc1nc2ccccc2[nH]c1=O)C(=O)OC (configuration not stated) | – | – | > 100 µM | > 100 µM | > 100 µM | > 100 µM | TGI [3]: > 100 µM; TGI [8]: > 100 µM
4 | O=[N+]([O-])C1C(c2ccccc2)C12c1ccccc1-c1ccccc12 (configuration not stated) | 0.351 µM | 30.8 µM | – | – | – | – | –
5 | Cc1c2c(nn1-c1ccc(S(=O)(=O)NC(=S)Nc3ccccc3)cc1)-c1ccccc1CC2 | 11.5 µM | 34.3 µM | – | – | – | – | –
6 | COC(=O)C1CC2(CC3=C1CCCC3)OCCO2 (configuration not stated) | – | – | > 100 µM | – | > 100 µM | > 100 µM | TGI [7]: > 100 µM; TGI [8]: > 100 µM
7 | Nc1nc(SCc2ccccn2)c2ncn(C3CCCC3)c2n1 | – | > 100 µM | – | – | – | – | TGI [9]: > 100 µM
8 | COc1cc(C2C=C(c3cccc(NC(C)=O)c3)Nc3ncnn32)cc(OC)c1OC (configuration not stated) | 0.317 µM | > 100 µM | – | – | – | – | –
9 | CN(C)c1cccc2c(S(=O)(=O)N[C@H]3CC[C@H]4[C@@H]5CCc6cc(O)ccc6[C@H]5CC[C@]34C)cccc12 | 2.59 µM | > 100 µM | – | – | – | – | –
10 | Cc1cc2c(c(C#N)c1C)NC(=O)CCC2=O | – | – | > 100 µM | > 100 µM | > 100 µM | > 100 µM | TGI [7]: > 100 µM; TGI [8]: > 100 µM
11 | C=C1C(=O)O[C@H]2[C@H]1CC/C(COC(=O)c1cc3cc(F)ccc3[nH]1)=C\CC[C@@]1(C)O[C@@H]21 | 1.02 µM | 3.75 µM | – | – | – | – | –
12 | CCOc1ccccc1NC(=O)C(=O)CC(=O)c1c(C)n([O-])c2ccccc2[n+]1=O | – | – | > 100 µM | > 100 µM | > 100 µM | > 100 µM | TGI [3]: > 100 µM
13 | O=C(NNc1nc(Cl)nc(N2CCN(C(c3ccccc3)c3ccccc3)CC2)n1)c1ccccc1 | 6.44 µM | > 100 µM | – | – | – | – | –
14 | COc1cccc(C2CC(C)(N3CCCC3)Oc3cc4c(cc32)OCO4)c1O (configuration not stated) | – | > 91.2 µM | – | – | – | – | TGI [9]: 10.7 µM
15 | N#Cc1c(-c2nc3ccccc3s2)c(=O)oc2cc(O)ccc12 | – | > 100 µM | – | – | – | – | TGI [9]: > 100 µM
16 | CC1=C(C(=O)Nc2c(C)cccc2C)C(c2ccc3c(c2)OCO3)C(C(=O)Nc2c(C)cccc2C)=C(C)N1 | – | – | – | 29 µM | 43.9 µM | – | TGI [3]: 48.2 µM; TGI [7]: 42.3 µM
17 | COc1cc(/C(C#N)=C/c2ccc3c(c2OC)OCO3)cc2c1OCO2 | 0.0482 µM | > 100 µM | – | – | – | – | –
18 | O=c1c2ccccc2[nH]c(=S)n1-c1ccc(Br)cc1 | – | – | – | > 100 µM | > 100 µM | > 100 µM | TGI [3]: > 100 µM; TGI [8]: > 100 µM
19 | CC1OC(OCC2OC(Oc3c(-c4ccc(O)cc4)oc4cc(O)cc(O)c4c3=O)C(OC3OCC(O)(CO)C3O)C(O)C2O)C(O)C(O)C1O (configuration not stated) | – | – | > 100 µM | > 100 µM | > 100 µM | 61.6 µM | TGI [3]: > 100 µM; TGI [7]: > 100 µM
20 | Cc1cnc2c(C)ccc([N+](=O)[O-])c2c1NCCCN(C)C | – | – | > 100 µM | > 100 µM | – | > 100 µM | –

Row | SMILES | GI50 [1] | TGI [1] | TGI [2] | TGI [4] | TGI [5] | TGI [6] | also measured
21 | COc1ccc(N=C2CSc3nnc(-c4cc(F)c(Cl)cc4Cl)n3N2)cc1 | 0.464 µM | 19.8 µM | – | – | – | – | –
22 | Cn1c(=O)nc2n(-c3ccc(Cl)cc3)c3ccc(Cl)cc3nc-2c1=O | – | – | – | 36.7 µM | – | – | –
23 | Nc1ccn(CCOC(=O)c2ccccc2)c(=O)n1 | – | – | > 100 µM | > 100 µM | > 100 µM | – | TGI [3]: > 100 µM; TGI [7]: > 100 µM
24 | N#Cc1cn(C2OC(CO)C(O)C2O)c2ncnc(N)c12 (configuration not stated) | 0.0251 µM and 0.045 µM and < 0.0169 µM | – | 0.39 µM and 0.07 µM | 3.42 µM and 12 µM | – | 1.56 µM and 7.69 µM | GI50 [3]: 0.0557 µM; GI50 [4]: 0.0045 µM; GI50 [9]: 0.0281 µM; GI50 [10]: 0.0127 µM and 0.045 µM; TGI [11]: 3.13 µM; GI50 [8]: 0.045 µM; TGI [8]: 0.013 µM and 0.0663 µM
25 | COc1cc([C@H]2c3cc4c(cc3O[C@@]3(O)COC(=O)[C@@H]23)OCO4)cc(OC)c1OC | – | > 100 µM | > 100 µM | > 100 µM | – | > 100 µM | TGI [3]: > 100 µM; TGI [9]: > 100 µM; TGI [7]: > 100 µM; TGI [8]: > 100 µM
26 | O=C(CCCCCCSc1nc(-c2ccccc2)cc(-c2ccc(Cl)cc2)n1)NO | 1.95 µM | 13.3 µM | – | – | – | – | –
27 | O=P(O)(CCP(=O)(O)c1ccccc1)c1ccccc1 | – | > 100 µM | – | – | – | – | TGI [9]: > 100 µM
28 | O=C(Oc1ccc(Cl)cc1Cl)c1ccccc1Nc1ccnc(C(F)(F)F)c1 | 3.61 µM | 17.2 µM | – | – | – | – | –
29 | N#Cc1c(Sc2ccccc2N)cccc1Sc1ccccc1N | 27.9 µM | – | – | – | – | – | GI50 [9]: 49.1 µM
30 | CC[C@H](C)N(CCN)C(=O)c1cc2ccccc2c(-c2ccccc2Cl)n1 | – | – | 27.6 µM | 26.6 µM | 10.4 µM | – | –
31 | COc1ccc2nc(N/N=C(\C)c3ccccn3)cc(C)c2c1 | 0.288 µM | 1.07 µM | – | – | – | – | –
32 | CC1=C(C(=O)Nc2ccccc2C)C(c2ccccc2)C(C(=O)Nc2ccccc2C)=C(C)N1 | – | – | > 100 µM | > 100 µM | > 100 µM | > 100 µM | TGI [3]: > 100 µM; TGI [8]: 83.2 µM
33 | CNC(=O)c1cc(OC2CCC(NC(=O)Nc3ccc(Cl)c(C(F)(F)F)c3)CC2)ccn1 (configuration not stated) | 3.48 µM | 18.1 µM | – | – | – | – | –
34 | Cc1ccc(CNc2c3ccccc3nc3ccccc23)cc1 | 1.99 µM | 5.03 µM | – | – | – | – | –
35 | C=C1CC2(OC1=O)C(=O)N(CCCCCCCN1C(=O)C3(CC(=C)C(=O)O3)c3ccccc31)c1ccccc12 (configuration not stated) | 1.35 µM | 6.9 µM | – | – | – | – | –
36 | O=C(CNc1nncs1)NO | – | – | > 100 µM | > 100 µM | > 100 µM | > 100 µM | TGI [3]: > 100 µM
37 | O=C(CN1CCN(c2ncccn2)CC1)Nc1ccc(Cl)cc1C(=O)c1ccccc1Cl | 83.3 µM | > 100 µM | – | – | – | – | –
38 | COc1cccc2cc(C)c(C(=O)c3ccccc3)nc12 | – | – | > 100 µM | > 100 µM | > 100 µM | > 100 µM | TGI [3]: > 100 µM; TGI [7]: > 100 µM; TGI [8]: > 100 µM
39 | Cc1ncc(CN=Cc2ccc(Cl)cc2)c(N)n1 | – | > 100 µM | – | – | – | – | TGI [9]: > 100 µM
